The values below come from patent US20100197584A1, “USE OF CURCUMIN TO BLOCK BRAIN TUMOR FORMATION IN MICE” (Research Foundations of the City University of- New York, priority 2007, published 2010).

The subject of assay [1] is N18 (mouse neuroblastoma) cells. Put plainly: Cell viability assay using MTT, N18. In kind it is cell-based. The conditions noted are these: 25 μM and 50 μM, 48 h or 96 h, versus control cells (FIG. 6c). Here is the method: Cells. B16F10 (mouse melanoma), GL261 (mouse glioma), HOG (human oligodendroglioma), A549 (human lung cancer), and N18 (mouse neuroblastoma) cells were cultured separately in DMEM containing 10% (v/v) fetal bovine serum and 1% (v/v) penicillin-streptomycin (PS) and allowed to grow to 40% confluence in a 96-well plate.
Curcumin Treatment. Two hours before drug treatment, the medium in each well was replaced with 200 μl Neurobasal medium supplemented with 2% (v/v) B27 and 1% (v/v) PS (Drug-treatment Medium). A stock solution (40 mM) of curcumin was prepared in sterile dimethyl sulfoxide (DMSO) (Example 1). Through serial dilution of each stock solution in Drug-treatment Medium, the following concentrations were obtained: 20 μM and 50 μM (for caspase 3/7 assays) or 25 μM and 50 μM (for MTT assays). […] Additionally, the background absorbance was determined from parallel wells containing only the Drug-treatment Medium plus a particular concentration of the drug (no cells).
Cell Viability Assay Using MTT (3-(4,5-Dimethylthiazolyl-2)-2,5-Diphenyltetrazolium Bromide). […] Absorbance was measured at 570 nm using a 96-well multi scanner auto-reader with the extraction buffer used as blank. For curcumin samples, the absorbance obtained from the corresponding curcumin plus medium samples was subtracted.

In assay [2] the test system is A549 (human lung cancer) cells. In words: Caspase-3/7 assay in A549 cells. In kind it is cell-based. As to conditions: 20 μM and 50 μM, 48 h (FIG. 5). Here is the method: Cells. B16F10 (mouse melanoma), GL261 (mouse glioma), HOG (human oligodendroglioma), A549 (human lung cancer), and […] (mouse neuroblastoma) cells were cultured separately in DMEM containing 10% (v/v) fetal bovine serum and 1% (v/v) penicillin-streptomycin (PS) and allowed to grow to 40% confluence in a 96-well plate. Curcumin Treatment. Two hours before drug treatment, the medium in each well was replaced with 200 μl Neurobasal medium supplemented with 2% (v/v) B27 and 1% (v/v) PS (Drug-treatment Medium). A stock solution (40 mM) of curcumin was prepared in sterile dimethyl sulfoxide (DMSO) (Example 1). Through serial dilution of each stock solution in Drug-treatment Medium, the following concentrations were obtained: 20 μM and 50 μM (for caspase 3/7 assays) or 25 μM and 50 μM (for MTT assays). Drug-treatment Medium in each well was aspirated, and a drug solution of each concentration or carrier-containing medium (control) was added to triplicate wells of cells (50 μl/well). […] Additionally, the background absorbance was determined from parallel wells containing only the Drug-treatment Medium plus a particular concentration of the drug (no cells). […] Fluorescence in each well was measured using the FLx 800 plate reader (Bio-Tek Instruments, Winooski, Vt.) set at 485/20 nm excitation and 528/20 nm emission wavelengths and the sensitivity of 70. […]

As to `COc1cc(/C=C/C(=O)CC(=O)/C=C/c2ccc(O)c(OC)c2)ccc1O` [curcumin], the “cell viability (MTT)” value in assay [1] is reported as “dramatic decrease”. The caspase-3/7 activity entry in assay [2] is listed as “increased”.
